Data: the supplement of paper PMC13380429

What was measured:
Details in all cases: 72 h
Caco-2 [1] = test: cell viability relative to DMSO; higher = less toxic
Calu-3 [2] = test: as above
HepG2 [3] = test: as above
U2OS [4] = test: as above
Vero E6 [5] = test: as above
Caco-2 [6] = test: relative viability EC50 (midpoint between 100% and the lowest measured viability); higher = less toxic
Calu-3 [7] = test: as above
HepG2 [8] = test: as above
U2OS [9] = test: as above
Vero E6 [10] = test: as above
Caco-2 [11] = test: drug sensitivity score (DSS) for viability; higher = more toxic; extreme values may be limits of the assay
Calu-3 [12] = test: as above
HepG2 [13] = test: as above
U2OS [14] = test: as above
Vero E6 [15] = test: as above

Structure (SMILES)	cell viability (Caco-2 [1]; 1 nM) [%]	cell viability (Caco-2 [1]; 10 nM) [%]	cell viability (Caco-2 [1]; 100 nM) [%]	cell viability (Caco-2 [1]; 1000 nM) [%]	cell viability (Caco-2 [1]; 10000 nM) [%]	cell viability (Calu-3 [2]; 1 nM) [%]	cell viability (Calu-3 [2]; 10 nM) [%]	cell viability (Calu-3 [2]; 100 nM) [%]	cell viability (Calu-3 [2]; 1000 nM) [%]	cell viability (Calu-3 [2]; 10000 nM) [%]	cell viability (HepG2 [3]; 1 nM) [%]	cell viability (HepG2 [3]; 10 nM) [%]	cell viability (HepG2 [3]; 100 nM) [%]	cell viability (HepG2 [3]; 1000 nM) [%]	cell viability (HepG2 [3]; 10000 nM) [%]	cell viability (U2OS [4]; 1 nM) [%]	cell viability (U2OS [4]; 10 nM) [%]	cell viability (U2OS [4]; 100 nM) [%]	cell viability (U2OS [4]; 1000 nM) [%]	cell viability (U2OS [4]; 10000 nM) [%]	cell viability (Vero E6 [5]; 1 nM) [%]	cell viability (Vero E6 [5]; 10 nM) [%]	cell viability (Vero E6 [5]; 100 nM) [%]	cell viability (Vero E6 [5]; 1000 nM) [%]	cell viability (Vero E6 [5]; 10000 nM) [%]	relative viability EC50 (Caco-2 [6]) [µM]	relative viability EC50 (Calu-3 [7]) [µM]	relative viability EC50 (HepG2 [8]) [µM]	relative viability EC50 (U2OS [9]) [µM]	relative viability EC50 (Vero E6 [10]) [µM]	drug sensitivity score (Caco-2 [11])	drug sensitivity score (Calu-3 [12])	drug sensitivity score (HepG2 [13])	drug sensitivity score (U2OS [14])	drug sensitivity score (Vero E6 [15])
COC(=O)CN1CN(c2ccccc2)C2(CCN(Cc3cccc4ccccc34)CC2)C1=O [NNC-63-0532]	102	96.3	95	99.7	96.9	98.2	106	97.7	114	102	93.5	104	99.6	95	99.8	100	96.1	94.9	102	98.7	90.2	97.3	96.5	90.7	103	> 10	> 10	> 10	> 10	> 10	0	0	0	0	0
C[C@]12CC[C@H]3[C@@H](CCC4=CC(=O)CC[C@@H]43)[C@@H]1CC[C@@H]2O [Nandrolone]	92	91.3	98.7	103	95	95.7	102	102	104	99.4	102	101	96.9	108	113	98.7	96.1	98.5	96.5	96.7	91.6	104	89.9	96.2	103	> 10	> 10	> 10	> 10	> 10	0	0	0	0	0
CO/N=C1/C[C@@H](C(=O)NC[C@@H](O)c2ccccc2)N(C(=O)c2ccc(-c3ccccc3C)cc2)C1 [OT-R-antagonist-1]	89	99	99.1	86.6	98.3	96.2	106	106	110	99.4	102	97.6	99.4	97.7	98.5	96.9	99.8	94.5	99.1	100	97	90.8	95.2	84.8	103	> 10	> 10	> 10	> 10	> 10	0	0	0	0	0
C[C@]12COC(=O)C[C@@H]1CC[C@@H]1[C@@H]2CC[C@@]2(C)[C@H]1CC[C@]2(C)O [Oxandrolone]	106	101	100	99.4	106	98.3	98.4	96.8	103	110	102	94.9	104	99.4	90.8	101	99.4	99.7	102	104	104	98	98.4	104	98.2	> 10	> 10	> 10	> 10	> 10	0	0	0	0	0
O=C(/C=C/N1C[C@H]2C[C@@H]1CN2c1ccccn1)c1ccccc1O [PFI-3]	92	94.5	88.5	98.1	106	101	115	98.1	96.1	107	97.3	99.8	110	99.5	96.2	92.6	99.7	96.1	99.7	101	99.3	90.4	99.6	93.8	104	> 10	> 10	> 10	> 10	> 10	0	0	0	0	0
Cc1ccc([N+](=O)[O-])cc1S(=O)(=O)N(C)/N=C/c1cnc2ccc(Br)cn12 [PIK-75]	98.8	90.3	57.9	28.4	33.3	102	103	52.6	35.6	46.7	97.9	84.7	26	11.1	10.6	98.6	96.6	53.8	4.2	0.8	105	101	69.7	0.7	5.3	0.0669	0.0668	0.0317	0.109	0.139	18.3	17.4	26.8	23	22.3
O=C1C(c2ccccn2)=[N+]([O-])c2ccccc21 [PIT]	104	95.1	92.7	92.1	109	95.2	106	94.7	93.9	102	99.8	103	96	91.8	97.9	97.6	100	99	95.3	101	102	102	97	97.6	97.5	> 10	> 10	> 10	> 10	> 10	0	0	0	0	0
